Assays:
HDAC1 = HDAC1 (Homo sapiens, UniProt Q13547); test: Homogeneous ZMAL-based fluorescence assay for HDAC1; assay type: biochemical
Description: The inhibition of HDAC1 and 6 by the S1th and PR-619 was determined via the ZMAL-assay according to the same general procedure described for sirtuins (2.2.1). 5 μL substrate (10.5 μM final assay concentration) were mixed with 3 μL of inhibitor in DMSO or DMSO and 10 μL of HDAC solution (concentration adjusted to 15–30% conversion) and filled up to 60 μL with assay buffer (50 mM Tris, 137 mM NaCl, 1 mM MgCl2, 2,7 mM KCl, 1 mg/ml BSA, pH = 8.0). The mixture was incubated at 37°C and 140 rpm for 1.5 h. For the stop solution Trichostatin A (3.3 μM) was used instead of nicotinamide. Fluorescence intensity was measured as described above. An enzyme free blank control and an AMC containing 100% control were performed as well and inhibition was calculated in % in relation to a DMSO control.

human Sirt3 = biological target: T1, human Sirt3 (Homo sapiens, UniProt Q9NTG7); test: Homogeneous ZMAL-based fluorescence assay, Sirt3; assay type: biochemical; conditions: 4th round
T1 construct: Human Sirt3_118−395 was expressed and purified as described previously; made in house
T1 sequence (Q9NTG7 118-395): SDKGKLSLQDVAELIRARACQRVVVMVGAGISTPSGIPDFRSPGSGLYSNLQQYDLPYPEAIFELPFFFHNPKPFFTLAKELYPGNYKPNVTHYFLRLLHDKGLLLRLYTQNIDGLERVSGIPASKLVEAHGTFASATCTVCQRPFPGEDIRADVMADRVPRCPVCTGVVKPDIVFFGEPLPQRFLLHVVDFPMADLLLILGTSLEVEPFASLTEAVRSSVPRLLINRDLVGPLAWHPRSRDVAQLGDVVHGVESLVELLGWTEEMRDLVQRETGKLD
Description: Recombinant human Sirt5_37−310 was purchased readily in Tris Buffer [25 mM Tris, 100 mM NaCl, 5 mM DTT, 10% glycerol (v/v)] from Enzo Life Sciences (NY, USA). Human Sirt3_118−395 was expressed and purified as described previously ([54]). For expression of human Sirt1_134−747 and Sirt2_56−356 chemically competent cells of E. coli BL21 Star (DE3) were transformed with the expression vectors pET30S-hSirt1_134−747 or pET30S-hSirt2_56−356. Bacteria were grown at 37°C in 2×YT medium supplemented with 50 μg·mL^−1 of kanamycin to an OD600 of 0.6. Then isopropyl-β-D-1-thiogalactopyranoside (IPTG) was added to a final concentration of 1 mM to induce gene expression. After further cultivation at 20°C for 12 h, the cells were harvested by centrifugation for 15 min at 5,000 g. The cells were resuspended in lysis buffer [100 mM Tris/HCl buffer at pH 8.0, 150 mM NaCl and 10% (v/v) glycerol] and disrupted by ultrasonication (Branson Digital Sonifier 250) at 70% amplitude for 10 min (3 s working, 10 s pause). The crude extract was cleared by centrifugation at 100,000 g for 1 h, and the supernatant was loaded onto a Strep-Tactin Superflow cartridge (5 ml bed volume, IBA Lifescience, Germany). Target proteins were eluted with lysis buffer containing 5 mM D-Desthiobiotin (IBA Lifescience, Germany) and further separated by size-exclusion chromatography (Superdex S200 26/60, GE Healthcare, IL, USA) equilibrated in Tris/HCl buffer (20 mM, 150 mM NaCl, pH 8.0). Pure protein was concentrated by ultrafiltration, flash-frozen in liquid nitrogen and stored at −80°C until further use. Identity as well as purity were verified by SDS-PAGE ([55]) and protein concentration was determined by the bicinchoninic acid (BCA) method, using bovine serum albumin (BSA) as a standard ([56]). Deacetylase activity was confirmed to be NAD^+-dependent and could be inhibited with the physiological sirtuin inhibitor nicotinamide.
All compounds were tested in the trypsin-coupled high-throughput ZMAL-assay in black 96-well plates (OptiPlateTM−96F, black, 96 well, Pinch bar design, PerkinElmer, USA), using ZMAL (Z-Lys(acetyl)-AMC) as a substrate ([57]). Sirt1_134−747, Sirt2_56−356, and Sirt3_118−395 were mixed with 5 μL substrate (10.5 μM final assay concentration, diluted from a […] stock in DMSO) and 3 μL Inhibitor in DMSO at various concentrations or DMSO as a control [final DMSO concentration 5% (v/v)]. The mixture was supplemented with assay buffer (50 mM Tris/HCl, 137 mM NaCl, 2.7 mM KCl, 1 mM MgCL2, pH 8.0) to a total volume of 55 μL. Enzyme concentration was adjusted to get a final conversion of 20–30%. Addition of 5 μL NAD^+ (6 mM in assay buffer, final assay concentration of 500 μM) initiated the catalytic reaction and the plates were incubated at 37°C for 4 h with agitation at 140 rpm. The catalytic reaction was stopped by addition of 60 μL stop solution [50 mM Tris, 100 mM NaCl, 6.7% (V/V) DMSO, 5.5 U/μL trypsin, 8 μM nicotinamide, pH 8.0]. The plate was again incubated at 37°C and 140 rpm for 20 min to release free AMC from the deacetylated substrate by trypsin digestion. Afterwards, fluorescence intensity was measured in a microplate reader (λEx = 390 nm, λEm = 460 nm, BMG POLARstar Optima, BMG Labtech, Germany). An enzyme-free blank control and a 100% conversion control containing AMC instead of ZMAL were measured in addition. Inhibition was calculated in % in relation to a DMSO control after blank signal subtraction and IC50 values were determined using a non-linear regression to fit the dose-response curve with OriginPro 9G (OriginLab, USA). Pre-tests as well as IC50 determination was carried out at least twice in duplicates.

MCF7 cells = test: Colony forming assay with MCF7 cells; assay type: cell-based, human; conditions: concentrations as for HeLa
Description: For colony assays, 50 cells per well were seeded in 6-well plates and grown in the same conditions with the same drug concentrations as for the proliferation assays. In this case, the growth media containing the drugs was replaced every 48 h. After 7–10 days, when isolated colonies were formed, wells were washed with PBS, and cells were fixed with cold methanol for 5 min at RT. Cells were stained with crystal violet for 10 min at RT and washed with H2O. Images were acquired using iBright (Thermo Fisher Scientific, MA, USA). For quantification, cells of each well were resuspended in 10% glacial acetic acid to dissolve crystal violet whose levels were monitored by measuring absorbance at 590 nm. The experiment was performed in duplicates.

[1] = Solubility as found in testing; assay type: physicochemical; conditions: compared with earlier hits such as S1th 7

HDAC1, sequence (Q13547 whole entry, species assumed): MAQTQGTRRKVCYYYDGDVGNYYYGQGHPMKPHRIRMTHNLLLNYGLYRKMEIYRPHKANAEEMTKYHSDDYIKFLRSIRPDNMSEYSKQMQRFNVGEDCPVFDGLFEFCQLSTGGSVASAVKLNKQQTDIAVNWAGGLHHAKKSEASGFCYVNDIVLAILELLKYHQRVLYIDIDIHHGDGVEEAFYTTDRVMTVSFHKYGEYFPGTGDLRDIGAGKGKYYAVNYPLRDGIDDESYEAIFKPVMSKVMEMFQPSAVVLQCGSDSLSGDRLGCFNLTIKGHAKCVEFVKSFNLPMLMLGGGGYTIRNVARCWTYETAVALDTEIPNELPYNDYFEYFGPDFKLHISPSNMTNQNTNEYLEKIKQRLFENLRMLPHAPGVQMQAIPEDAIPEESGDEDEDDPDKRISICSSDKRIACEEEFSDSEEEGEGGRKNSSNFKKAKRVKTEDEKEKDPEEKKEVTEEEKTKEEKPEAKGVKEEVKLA

Row | inhibition at 100 µM (HDAC1) | inhibition at 50 µM (human Sirt3) | solubility (in words) [1] | Compound | residual activity HDAC1 (HDAC1) | colony forming capabilities of MCF7 cells (MCF7 cells)
1 | < 10% | < 10% | better soluble | CCCCNC(=O)Nc1cccc(SC#N)c1 [S1th 11] | – | –
2 | < 10% | < 10% | better soluble | COc1ccc(SC#N)cc1OCC(=O)N(CCC#N)CCC#N [S1th 12] | – | barely affected

The remaining lines, values behind:

Row | Compound | inhibition at 100 µM (HDAC1) | inhibition at 50 µM (human Sirt3) | solubility (in words) [1] | residual activity HDAC1 (HDAC1) | colony forming capabilities of MCF7 cells (MCF7 cells)
3 | N#CSc1cc(SC#N)c(N)nc1N [PR-619, reference compound] | 54% | < 10% | – | ~ 50% | –
4 | N#CSc1cccc(NC(=O)[C@H]2CC=CC[C@H]2C(=O)O)c1 [S1th 10] | < 10% | < 10% | – | – | slightly decreased
5 | N#CSc1cccc(NS(=O)(=O)c2ccc3c(c2)OCCO3)c1 [S1th 13] | < 10% | < 10% | better soluble | – | significantly decreased

Source: PMC7203344, “Sirtuin 1 Inhibiting Thiocyanates (S1th)—A New Class of Isotype Selective Inhibitors of NAD^+ Dependent Lysine Deacetylases” (Frontiers in Oncology, 2020)
